Data as given in patent US10683292B2, “Purine and 3-deazapurine analogues as choline kinase inhibitors” (NERVIANO MEDICAL SCIENCES S.R.L., priority 2016, dated 2020).
Like-named read-outs stand apart in the source and are kept apart here.

How the values were obtained:
[1] = molecular target: T1, Δ49N-hChoKα (Homo sapiens, UniProt P35790); experiment: Biochemical kinase inhibition assay (Kinase-Glo Luminescent Kinase Assay) on Δ49N-hChoKα
T1 construct: cDNA fragment 362-1534, corresponding to aminoacids 50-457; GST (N, cleaved yes); Prescission Protease recognition site (N, cleaved yes); made in house; host or cells: Escherichia coli BL21pLysS (DE3)
Experimental: The biochemical activity of compounds against Δ49N-ChoKα and ChoKβ FL were determined using the Kinase-Glo™ Luminescent Kinase Assay (Promega cat. V6711).
Compounds were 3-fold serially diluted from 10 to 0.0005 μM, then incubated for 60 minutes at rt in the presence of ATP 5 μM, choline (5 μM for ChoKα and 20 μM for ChoKβ) and enzyme in a final volume of 19 μL of kinase buffer (50 mM Hepes pH 7.5, 10 mM MgCl2, 1 mM DTT, 3 μM Na3VO4 and 0.2 mg/mL BSA). The final concentration of DMSO was 1%.
At the end of the incubation, an amount of 19 μL of KinaseGlo Reagent was added to each well to stop the reaction and after 30 minutes the luminescence signal was measured using ViewLux reader (Perkin Elmer).
The data per each molecule are analyzed by an internally customized version of the SW package “Assay Explorer” which provides sigmoidal fittings of the ten-dilution curves for IC50 determination using a 4 parameter logistic equation: y=bottom+(top−bottom)/(1+10^((log IC50−x)*slope)) where x is the logarithm of the inhibitor concentration, y is the response; y starts at bottom and goes to top with a sigmoid shape.

[2] = molecular target: T2, hChoKβ FL (Homo sapiens, UniProt Q9Y259); experiment: Biochemical kinase inhibition assay (Kinase-Glo Luminescent Kinase Assay) on hChoKβ FL; details: ATP 5 μM, choline 20 μM, 60 minutes at rt; read-out: IC50 ChoKβ
T2 construct: hChoKβ full length (FL), corresponding to aminoacids 2-395; GST (N, cleaved yes); Prescission Protease recognition site (N, cleaved yes); made in house; host or cells: Escherichia coli BL21pLysS (DE3)

[3] = ATP 5 μM, choline 5 μM, 60 minutes at rt, read-out: IC50 ChoKα

T2 sequence (Q9Y259 2-395): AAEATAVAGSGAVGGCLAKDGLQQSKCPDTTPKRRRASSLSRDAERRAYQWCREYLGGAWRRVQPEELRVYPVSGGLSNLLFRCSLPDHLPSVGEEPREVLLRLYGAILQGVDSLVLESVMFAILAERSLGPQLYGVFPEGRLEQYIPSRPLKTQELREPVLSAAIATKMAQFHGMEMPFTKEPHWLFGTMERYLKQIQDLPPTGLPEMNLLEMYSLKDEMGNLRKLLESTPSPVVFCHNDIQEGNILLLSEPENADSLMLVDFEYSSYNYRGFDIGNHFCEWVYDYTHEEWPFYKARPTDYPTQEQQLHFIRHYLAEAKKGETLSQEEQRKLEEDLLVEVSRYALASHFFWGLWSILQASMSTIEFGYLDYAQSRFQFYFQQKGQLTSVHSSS
T1 sequence (P35790 50-457, stated change not applied): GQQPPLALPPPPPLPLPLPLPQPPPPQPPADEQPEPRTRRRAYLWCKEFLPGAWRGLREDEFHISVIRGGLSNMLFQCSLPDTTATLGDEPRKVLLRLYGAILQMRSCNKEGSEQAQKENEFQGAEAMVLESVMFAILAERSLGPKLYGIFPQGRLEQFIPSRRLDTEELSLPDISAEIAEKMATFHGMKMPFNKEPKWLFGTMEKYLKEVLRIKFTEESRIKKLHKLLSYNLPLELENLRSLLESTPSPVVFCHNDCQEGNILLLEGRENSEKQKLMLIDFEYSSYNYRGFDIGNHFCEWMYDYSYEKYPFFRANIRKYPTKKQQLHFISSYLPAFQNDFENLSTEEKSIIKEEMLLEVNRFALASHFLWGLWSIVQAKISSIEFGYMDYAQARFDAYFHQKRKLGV

| SMILES | IC50 [1, 3] | IC50 [2] | IC50 [1] |
| --- | --- | --- | --- |
| Nc1nc(Cl)nc2c1ncn2[C@H]1CC[C@@H](C(=O)Nc2nc3ccc(Cl)cc3s2)CC1 [cpd 90, cis-4-(6-amino-2-chloro-9H-purin-9-yl)-N-(6-chloro-1,3-benzothiazol-2-yl)cyclohexanecarboxamide] | 28 nM | > 10000 nM | – |
| CN1CCc2nc(NC(=O)[C@H]3CC[C@@H](n4cnc5c(N)nc(C#C[Si](C)(C)C)nc54)CC3)sc2C1 [cpd 199, cis-4-{6-amino-2-[(trimethylsilyl)ethynyl]-9H-purin-9-yl}-N-(5-methyl-4,5,6,7-tetrahydro[1,3]thiazolo[5,4-c]pyridin-2-yl)cyclohexanecarboxamide] | – | > 10000 nM | 67 nM |
| Cc1csc(NC(=O)[C@H]2CC[C@@H](n3cnc4c(N)nc(C(F)(F)F)nc43)CC2)n1 [cpd 129, cis-4-[6-amino-2-(trifluoromethyl)-9H-purin-9-yl]-N-(4-methyl-1,3-thiazol-2-yl)cyclohexanecarboxamide] | 416 nM | > 10000 nM | – |
| COc1cccc(NC(=O)[C@H]2CC[C@@H](n3cnc4c(N)nc(-c5cccc(C(=O)Nc6ccc(CN7CCN(C)CC7)cc6)c5)nc43)CC2)c1 [cpd 30, 3-(6-amino-9-{cis-4-[(3-methoxyphenyl)carbamoyl]cyclohexyl}-9H-purin-2-yl)-N-{4-[(4-methylpiperazin-1-yl)methyl]phenyl}benzamide] | 305 nM | > 10000 nM | – |
| CC1(C)Cc2nc(NC(=O)[C@H]3CC[C@@H](n4cnc5c(N)nc(Cl)nc54)CC3)sc2CO1 [cpd 195, cis-4-(6-amino-2-chloro-9H-purin-9-yl)-N-(6,6-dimethyl-6,7-dihydro-4H-pyrano[4,3-d][1,3]thiazol-2-yl)cyclohexanecarboxamide] | 24 nM | 6110 nM | – |
| Nc1nc(C(F)(F)F)nc2c1ncn2[C@H]1CC[C@@H](C(=O)Nc2nc3ccc(F)cc3s2)CC1 [cpd 132, cis-4-[6-amino-2-(trifluoromethyl)-9H-purin-9-yl]-N-(6-fluoro-1,3-benzothiazol-2-yl)cyclohexanecarboxamide] | 257 nM | > 10000 nM | – |
| CN(c1nc(CC(N)=O)cs1)C(=O)[C@H]1CC[C@@H](n2cnc3c(N)nc(Cl)nc32)CC1 [cpd 164, cis-4-(6-amino-2-chloro-9H-purin-9-yl)-N-[4-(2-amino-2-oxoethyl)-1,3-thiazol-2-yl]-N-methylcyclohexanecarboxamide] | 70 nM | > 10000 nM | – |
| C#Cc1nc(N)c2ncn([C@H]3CC[C@@H](C(=O)Nc4nc5c(s4)CN(C)CC5)CC3)c2n1 [cpd 201, cis-4-(6-amino-2-ethynyl-9H-purin-9-yl)-N-(5-methyl-4,5,6,7-tetrahydro[1,3]thiazolo[5,4-c]pyridin-2-yl)cyclohexanecarboxamide] | 19 nM | > 10000 nM | – |
| Nc1nc(F)nc2c1ncn2[C@H]1CC[C@@H](C(=O)Nc2nc3c(s2)CC(F)(F)CC3)CC1 [cpd 191, cis-4-(6-amino-2-fluoro-9H-purin-9-yl)-N-(6,6-difluoro-4,5,6,7-tetrahydro-1,3-benzothiazol-2-yl)cyclohexanecarboxamide] | 11 nM | > 10000 nM | – |
| Cc1csc(NC(=O)[C@H]2CC[C@@H](n3cnc4c(N)nc(C#C[Si](C)(C)C)nc43)CC2)n1 [cpd 98, cis-4-{6-amino-2-[(trimethylsilyl)ethynyl]-9H-purin-9-yl}-N-(4-methyl-1,3-thiazol-2-yl)cyclohexanecarboxamide] | 120 nM | > 10000 nM | – |
| NC(=O)CN1CCc2nc(NC(=O)[C@H]3CC[C@@H](n4cnc5c(N)nc(Cl)nc54)CC3)sc2C1 [cpd 196, cis-4-(6-amino-2-chloro-9H-purin-9-yl)-N-[5-(2-amino-2-oxoethyl)-4,5,6,7-tetrahydro[1,3]thiazolo[5,4-c]pyridin-2-yl]cyclohexanecarboxamide] | 26 nM | > 10000 nM | – |
| Cc1csc(NC(=O)[C@H]2CC[C@@H](n3cnc4c(N)nc(-c5cccc(C(=O)Nc6ccc(CN7CCC(N(C)C)CC7)cc6)c5)nc43)CC2)n1 [cpd 85, 3-(6-amino-9-{cis-4-[(4-methyl-1,3-thiazol-2-yl)carbamoyl]cyclohexyl}-9H-purin-2-yl)-N-(4-{[4-(dimethylamino)piperidin-1-yl]methyl}phenyl)benzamide bis-trifluoroacetate] | 11 nM | > 10000 nM | – |
| CN1CCc2nc(NC(=O)[C@H]3CC[C@@H](n4cnc5c(N)nc(I)nc54)CC3)sc2C1 [cpd 198, cis-4-(6-amino-2-iodo-9H-purin-9-yl)-N-(5-methyl-4,5,6,7-tetrahydro[1,3]thiazolo[5,4-c]pyridin-2-yl)cyclohexanecarboxamide] | 33 nM | > 10000 nM | – |
| Nc1nc(Cl)nc2c1ncn2[C@H]1CC[C@@H](C(=O)Nc2nc(CC(=O)N3CCC(N4CCCCC4)CC3)cs2)CC1 [cpd 86, cis-4-(6-amino-2-chloro-9H-purin-9-yl)-N-{4-[2-(1,4′-bipiperidin-1′-yl)-2-oxoethyl]-1,3-thiazol-2-yl}cyclohexanecarboxamide] | 52 nM | > 10000 nM | – |

The next lines start with results.

| IC50 [1, 3] | IC50 [2] | SMILES | IC50 [1] |
| --- | --- | --- | --- |
| 9 nM | > 10000 nM | Nc1nc(Cl)nc2c1ncn2[C@H]1CC[C@@H](C(=O)Nc2nc3c(s2)CC(F)(F)CC3)CC1 [cpd 188, cis-4-(6-amino-2-chloro-9H-purin-9-yl)-N-(6,6-difluoro-4,5,6,7-tetrahydro-1,3-benzothiazol-2-yl)cyclohexanecarboxamide] | – |
| 974 nM | > 10000 nM | COc1cccc(NC(=O)[C@H]2CC[C@@H](n3cnc4c(N)nc(C5CC5)nc43)CC2)c1 [cpd 87, cis-4-(6-amino-2-cyclopropyl-9H-purin-9-yl)-N-(3-methoxyphenyl)cyclohexanecarboxamide] | – |
| 48 nM | 6080 nM | Cc1cc2nc(NC(=O)[C@H]3CC[C@@H](n4cnc5c(N)nc(Cl)nc54)CC3)sc2cc1C [cpd 93, cis-4-(6-amino-2-chloro-9H-purin-9-yl)-N-(5,6-dimethyl-1,3-benzothiazol-2-yl)cyclohexanecarboxamide] | – |
| 40 nM | > 10000 nM | COc1cccc(NC(=O)[C@H]2CC[C@@H](n3cnc4c(N)nc(-c5cccc(C(=O)Nc6ccc(CN7CCC(N(C)C)CC7)cc6)c5)nc43)CC2)c1 [cpd 31, 3-(6-amino-9-{cis-4-[(3-methoxyphenyl)carbamoyl]cyclohexyl}-9H-purin-2-yl)-N-(4-{[4-(dimethylamino)piperidin-1-yl]methyl}phenyl)benzamide] | – |
| 844 nM | > 10000 nM | COc1ccc(NC(=O)[C@H]2CC[C@@H](n3cnc4c(N)nc(-c5ccncc5)nc43)CC2)cc1OC [cpd 37, cis-4-[6-amino-2-(pyridin-4-yl)-9H-purin-9-yl]-N-(3,4-dimethoxyphenyl)cyclohexanecarboxamide] | – |
| 613 nM | > 10000 nM | Cc1csc(NC(=O)[C@H]2CC[C@H](n3cnc4c(N)nc(-c5cc[nH]n5)nc43)CC2)n1 [cpd 113, trans-4-[6-amino-2-(1H-pyrazol-3-yl)-9H-purin-9-yl]-N-(4-methyl-1,3-thiazol-2-yl)cyclohexanecarboxamide] | – |
| 176 nM | > 10000 nM | Cc1csc(NC(=O)[C@H]2CC[C@@H](n3cnc4c(N)nc(-c5cccc(O)c5)nc43)CC2)n1 [cpd 103, cis-4-[6-amino-2-(3-hydroxyphenyl)-9H-purin-9-yl]-N-(4-methyl-1,3-thiazol-2-yl)cyclohexanecarboxamide] | – |
| 514 nM | > 10000 nM | Nc1nc(Cl)nc2c1ncn2[C@H]1CC[C@@H](NC(=O)c2nc3ccccc3s2)CC1 [cpd 140, N-[cis-4-(6-amino-2-chloro-9H-purin-9-yl)cyclohexyl]-1,3-benzothiazole-2-carboxamide] | – |
| 64 nM | 4160 nM | CS(=O)(=O)c1ccc2nc(NC(=O)[C@H]3CC[C@@H](n4cnc5c(N)nc(Cl)nc54)CC3)sc2c1 [cpd 89, cis-4-(6-amino-2-chloro-9H-purin-9-yl)-N-[6-(methylsulfonyl)-1,3-benzothiazol-2-yl]cyclohexanecarboxamide] | – |
| 49 nM | > 10000 nM | Nc1nc(Cl)nc2c1ncn2[C@H]1CC[C@@H](C(=O)Nc2nc3ccc(Br)cc3s2)CC1 [cpd 175, cis-4-(6-amino-2-chloro-9H-purin-9-yl)-N-(6-bromo-1,3-benzothiazol-2-yl)cyclohexanecarboxamide] | – |
| 268 nM | 7120 nM | Cn1c(NC(=O)[C@H]2CC[C@@H](n3cnc4c(N)nc(Cl)nc43)CC2)nc2ccccc21 [cpd 95, cis-4-(6-amino-2-chloro-9H-purin-9-yl)-N-(1-methyl-1H-benzimidazol-2-yl)cyclohexanecarboxamide] | – |
| 441 nM | > 10000 nM | COc1cccc(NC(=O)[C@H]2CC[C@@H](n3cnc4c(N)nc(I)nc43)CC2)c1 [cpd 41, cis-4-(6-amino-2-iodo-9H-purin-9-yl)-N-(3-methoxyphenyl)cyclohexanecarboxamide] | – |
| 86 nM | > 10000 nM | COc1nc(N)c2ncn([C@H]3CC[C@@H](C(=O)Nc4nc(C)cs4)CC3)c2n1 [cpd 84, cis-4-(6-amino-2-methoxy-9H-purin-9-yl)-N-(4-methyl-1,3-thiazol-2-yl)cyclohexanecarboxamide] | – |
| 43 nM | > 10000 nM | COc1cccc2sc(NC(=O)[C@H]3CC[C@@H](n4cnc5c(N)nc(I)nc54)CC3)nc12 [cpd 116, cis-4-(6-amino-2-iodo-9H-purin-9-yl)-N-(4-methoxy-1,3-benzothiazol-2-yl)cyclohexanecarboxamide] | – |
| 16 nM | > 10000 nM | Nc1nc(F)nc2c1ncn2[C@H]1CC[C@@H](C(=O)Nc2nc3c(s2)CCCC3)CC1 [cpd 206, cis-4-(6-amino-2-fluoro-9H-purin-9-yl)-N-(4,5,6,7-tetrahydro-1,3-benzothiazol-2-yl)cyclohexanecarboxamide] | – |
